Source: US9895466B2, “Liposomal drug delivery system for bone cements” (UNIVERSITY COLLEGE CARDIFF CONSULTANTS LIMITED, priority 2013, dated 2018)

Tested on: Staphylococcus aureus (S. aureus)
Experiment: Microbial growth and zones of inhibition on agar plates
Assay type: cell-based
Settings: 24 hours at 37° C.
Procedure: 10 mm diameter by 2 mm thick cylindrical bone cement samples were prepared as previously described for Palacos R, Palacos R+G and Palacos R with 200 mg of L61 liposomal gentamicin sulphate. Tryptone soya agar (TSA) was prepared by dissolving 40 g of tryptone soy agar medium in one liter of distilled water. The solution was boiled for one minute then sterilized in an autoclave at 121° C. for 15 minutes. The solution was allowed to cool to 45-50° C. before being dispensed into petri dishes (9 cm diameter). The petri dishes were cooled to room temperature then stored at 8-15° C. until use. Staphylococcus aureus (S. aureus) was cultured in tryptic soy broth (TSB) for 18-24 hours at 37° C. A sterile cotton swab was used to spread the inoculum across the TSA petri dish. The petri dish was turned by 60° and the process was repeated to ensure complete surface coverage. A 10 ug gentamicin standard disc was placed on the petri dish as a control and pressure was applied to the top of the disc to ensure full surface contact. […] The petri dish was then incubated at 37° C. for 18-24 hours, after which, the zones of inhibition around the samples and gentamicin disc were measured. Images of the zones of inhibition were taken and measured using ImageJ software (National Institutes of Health, Maryland, USA). The zones of inhibition were measured as the radius of the zone minus the radius of the sample. […]

## gentamicin sulphate
  Zone of inhibition against S. aureus: created a zone of inhibition
